Literature values, collected in article PMC11693862 (Acta Biochimica et Biophysica Sinica, 2024).

Legend:
[1] = in vivo; cited from earlier work
SARS-CoV and HCoV-229E = conditions: cited from earlier work
[2] = system: Mpros of HCoV-NL63, HCoV-HUK1, MERS-CoV, and SARS-CoV; conditions: cited from earlier work

SMILES: COc1cccc2[nH]c(C(=O)NC(CC(C)C)C(=O)NC(CC3CCNC3=O)C(=O)CO)cc12 (stereo not drawn) [PF-00835231]
- Oral bio-availability [1]: relatively poor
- Antiviral activity, semi-maximum effective concentration (EC50) (SARS-CoV and HCoV-229E): very low
- Inhibition of Mpros of HCoV-NL63, HCoV-HUK1, MERS-CoV, and SARS-CoV [2]: inhibits
